Results: US20060210659A1, “Anti-obesity agent” (priority 2005, published 2006)

Assay: Lipid-absorption suppressive activity: plasma triglyceride after oral salad oil tolerance
Format: in vivo, male ddy line mice
Experimental: (§1) Orbital blood collection from male ddy line mice of six weeks old (six animals per group) was carried out, and then 10 mL/kg of water or 0.1 g/kg of aqueous actein solution was orally administrated to each of them. After 30 minutes, 10 mL/kg of salad oil was orally administrated, orbital blood collection was performed after 180 minutes again, and blood plasma was separated to measure the triglyceride level.
as §1, with “0.2 g/kg or 1.0” for “0.1”, “aqueous” for “aqueous actein”, “solution of Black cohosh extract (Example 1)” for “solution”, “administrated.” for “administrated to each of them.”

Compound: CC(=O)O[C@@H]1C[C@@]23C[C@@]24CC[C@H](O[C@@H]2OC[C@@H](O)[C@H](O)[C@H]2O)C(C)(C)[C@@H]4CC[C@H]3[C@]2(C)C[C@@H]3O[C@]4(C[C@@H](C)[C@@H]3[C@@]12C)O[C@H](O)[C@@]1(C)O[C@@H]41 [actein]
- Triglyceride level in blood plasma, before salad oil administration (0.1 g/kg actein oral group, baseline blood collected before dosing, mean ± SD, six animals): 110.4 ± 22.2 mg/dL
- Triglyceride level in blood plasma, after 180 minutes (0.1 g/kg actein oral, 30 min before 10 mL/kg salad oil, 180 min after oil, mean ± SD): 248.6 ± 27.8 mg/dL
- Triglyceride level in blood plasma after 180 minutes of salad oil tolerance (in words) (0.1 g/kg actein oral, vs water group): significantly suppressed
